According to patent publication US11744824B2, “2-amino-3-carbonyl imidazopyridine and pyrazolopyridine compounds” (1ST Biotherapeutics, Inc., priority 2020, dated 2023):

Experiments:
[1] = target: GST-tagged recombinant human RIP2 (Homo sapiens (Human), UniProt O43353); test: RIP2 Kinase Assay (ADP-Glo); format: biochemical; conditions: in vitro kinase activity, ATP 25 μM
Experimental: GST-tagged recombinant human RIP2 (25 ng) is incubated with 5 μL of compounds (0.5% DMSO), 5 μL of MBP (0.5 μg/μl) and 5 μL of ATP (25 μM) in buffer (40 mM Tris, 7.5; 20 mM MgCl2; 0.1 mg/ml BSA; 50 μM DTT). The assay was started by incubating the reaction mixture in a 96-well plate at 30° C. for 60 minutes. After the incubation, 25 μL ADP-Glo reagent was added, and the reaction was incubated at 30° C. for 40 minutes to stop the reaction and degrade residual ATP. The ADP product was then converted to ATP by adding 50 μL per well of detection reagent. Luminescence was detected after 30 minutes room temperature incubation with the Molecular device I3X plate reader. The IC50 values were calculated from a series of percent inhibition values determined at a range of inhibitor concentration using software routines as implemented in the GraphPad Prism 7 software and SigmaPlot 13.0.

[2] = tested on: IL-6 secretion in BV-2 mouse microglia cells; test: IL-6 Secretion in BV-2 Cell (L18-MDP stimulated, ELISA); format: cell-based; conditions: BV-2 cells, 10 μg/ml L18-MDP, 24 hr
Experimental: IL-6 Secretion in BV-2 Cell
BV-2 mouse microglia cells were kindly provided from Dr. Bae in Korea Institute of Science and Technology (KIST). BV-2 cells were thawed and suspended in Dulbecco's modified eagle medium (DMEM) supplemented with 10% fetal bovine serum (FBS) and 1% Penicillin/Streptomycin. Cells were seeded into 96 well plates at 2×10^4 cells/well and allowed to attach for 24 hr. On the day of the experiment, various concentration of FB compounds was treated, and cells were stimulated with 10 μg/ml L18-MDP. After 24 hr incubation, supernatant was collected for cytokine assay.
Absorbance at 450 nm was measured using SpectraMax i3X microplate reader (Molecular Device). Values of media-only wells were subtracted and % inhibition for each compound concentration relative to the DMSO/L18-MDP-treated controls (100%) was calculated. The IC50 values were calculated from a series of percent activity values using software as implemented in the GraphPad Prism 7 software and SigmaPlot 13.0.

Chain of GST-tagged recombinant human RIP2 (O43353 whole entry): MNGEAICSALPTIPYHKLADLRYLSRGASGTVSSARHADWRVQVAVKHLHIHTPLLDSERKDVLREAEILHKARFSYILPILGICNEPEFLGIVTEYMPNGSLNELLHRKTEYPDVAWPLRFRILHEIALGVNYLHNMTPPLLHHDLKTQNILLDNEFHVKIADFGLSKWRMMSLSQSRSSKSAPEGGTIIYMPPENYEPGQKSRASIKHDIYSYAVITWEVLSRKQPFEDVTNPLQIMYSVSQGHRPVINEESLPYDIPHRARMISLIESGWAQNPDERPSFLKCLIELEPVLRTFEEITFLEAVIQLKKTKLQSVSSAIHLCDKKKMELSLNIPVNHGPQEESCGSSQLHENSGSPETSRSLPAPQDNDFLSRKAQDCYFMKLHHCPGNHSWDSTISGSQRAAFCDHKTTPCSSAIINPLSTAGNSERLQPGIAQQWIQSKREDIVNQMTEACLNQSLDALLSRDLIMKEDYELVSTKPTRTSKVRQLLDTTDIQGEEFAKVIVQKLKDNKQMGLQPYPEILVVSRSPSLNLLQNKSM

| SMILES | IC50 [1] | IC50 [2] |
| --- | --- | --- |
| Cc1c(F)cc2[nH]ncc2c1-c1ccn2nc(N)c(C(=O)C3CC3)c2c1 [Example 153, (2-amino-5-(6-fluoro-5-methyl-1H-indazol-4-yl)pyrazolo[1,5-a]pyridin-3-yl)(cyclopropyl)methanone] | 1 to 100 nM | 501 to 1000 nM |
| Nc1nc2ccc(-c3cnc4[nH]ccc4c3Cl)cn2c1C(=O)[C@@H]1C[C@@H]1F [Example 41] | 1 to 100 nM | 101 to 500 nM |
| CN(C)c1c(F)c(Cl)c(-c2ccc3nc(N)c(C(=O)[C@@H]4C[C@@H]4F)n3c2)c2cn[nH]c12 [Example 65] | > 1000 nM | > 1000 nM |
| Nc1nc2ccc(-c3ccc4[nH]ccc4c3Cl)cn2c1C(=O)[C@@H]1C[C@@H]1F [Example 73] | 1 to 100 nM | 101 to 500 nM |
| Nc1nc2ccc(-c3cnc4[nH]ccc4c3)cn2c1C(=O)[C@@H]1C[C@@H]1F [Example 32] | 1 to 100 nM | 101 to 500 nM |
| Cc1c(-c2ccc3nc(N)c(C(=O)c4ccncn4)n3c2)cnc2[nH]ccc12 [Example 84] | 1 to 100 nM | 501 to 1000 nM |
| Nc1nc2ccc(-c3cccc(F)c3Cl)cn2c1C(=O)[C@@H]1C[C@@H]1F [Example 44] | 1 to 100 nM | 501 to 1000 nM |
| Nc1nc2ccc(-c3c(Cl)c(F)cc4[nH]ncc34)cn2c1C(=O)[C@@H]1C[C@@H]1F [Example 64] | 1 to 100 nM | 101 to 500 nM |
| Nc1nc2ccc(-c3cnc4[nH]ccc4c3)cn2c1C(=O)c1ncccn1 [Example 79] | 1 to 100 nM | > 1000 nM |
| Nc1nc2ccc(-c3cnc4[nH]ccc4c3Cl)cn2c1C(=O)C1CNC1 [Example 83] | 1 to 100 nM | > 1000 nM |
| Nc1nc2ccc(-c3cnc4[nH]ccc4c3Cl)cn2c1C(=O)C1CCNC1 (centres unmarked) [Example 95] | 1 to 100 nM | > 1000 nM |
| Nc1nc2ccc(-c3cnc4[nH]ccc4c3F)cn2c1C(=O)[C@@H]1C[C@@H]1F [Example 69] | 1 to 100 nM | 501 to 1000 nM |
| Cc1c(-c2ccc3nc(N)c(C(=O)[C@@H]4C[C@@H]4F)n3c2)ccc2[nH]ncc12 [Example 90] | 1 to 100 nM | 501 to 1000 nM |
| Cc1c(-c2ccc3nc(N)c(C(=O)c4ncccn4)n3c2)cnc2[nH]ccc12 [Example 85] | 1 to 100 nM | 501 to 1000 nM |
| Nc1nc2ccc(-c3c(F)ccc4[nH]ccc34)cn2c1C(=O)[C@@H]1C[C@@H]1F [Example 101] | 1 to 100 nM | 501 to 1000 nM |
| Nc1nc2ccc(-c3ccc4[nH]ccc4c3)cn2c1C(=O)c1ccccn1 [Example 67] | 1 to 100 nM | 501 to 1000 nM |
| Cc1c(F)cccc1-c1ccn2nc(N)c(C(=O)C3CC3)c2c1 [Example 154] | 1 to 100 nM | > 1000 nM |
| Nc1nc2ccc(-c3ccnc4ccccc34)cn2c1C(=O)[C@@H]1C[C@@H]1F [Example 115] | 1 to 100 nM | 101 to 500 nM |
| Cc1c(-c2ccc3nc(N)c(C(=O)c4ccccn4)n3c2)cnc2[nH]ccc12 [Example 74] | 1 to 100 nM | 101 to 500 nM |
| Cc1c(-c2ccc3nc(N)c(C(=O)C4CCNC4)n3c2)cnc2[nH]ccc12 (centres unmarked) [Example 94] | 1 to 100 nM | > 1000 nM |
| Cc1ccc2[nH]ccc2c1-c1ccc2nc(N)c(C(=O)[C@@H]3C[C@@H]3F)n2c1 [Example 100] | 1 to 100 nM | 101 to 500 nM |
| Nc1nn2ccc(-c3cccc4[nH]ccc34)cc2c1C(=O)C1CC1 [Example 152] | 1 to 100 nM | 101 to 500 nM |
| Nc1nc2ccc(-c3cnc4ccccc4c3)cn2c1C(=O)[C@@H]1C[C@@H]1F [Example 116] | 101 to 500 nM |  |
| Cc1c(F)cccc1Oc1ccc2nc(N)c(C(=O)[C@@H]3C[C@@H]3F)n2c1 [Example 160] | 101 to 500 nM |  |
| Cc1c(F)cccc1-c1ccc2nc(N)c(C(=O)c3ccncn3)n2c1 [Example 77] | 101 to 500 nM |  |
| Cc1c(-c2ccc3nc(N)c(C(=O)[C@H]4C[C@H]4F)n3c2)ccc2[nH]ccc12 [Example 159] | 1 to 100 nM |  |

| SMILES | IC50 [1] | IC50 [2] |
| --- | --- | --- |
| Cc1c(-c2ccc3nc(N)c(C(=O)[C@@H]4C[C@@H]4F)n3c2)cnc2c1ccn2C [Example 106] | 101 to 500 nM |  |
| COC(=O)c1c(N)nc2ccc(-c3cccc(F)c3C)cn12 [Example 135, methyl 2-amino-6-(3-fluoro-2-methylphenyl)imidazo[1,2-a]pyridine-3-carboxylate] | 101 to 500 nM |  |
| Nc1nc2ccc(-c3ccccc3CCF)cn2c1C(=O)[C@@H]1C[C@@H]1F [Example 130] | 101 to 500 nM |  |
| Nc1nc2ccc(-c3ccc(N4CCOCC4)cc3)cn2c1C(=O)[C@@H]1C[C@@H]1F [Example 39] | > 1000 nM |  |
| Cc1c(-c2ccc3nc(N)c(C(=O)[C@@H]4C[C@@H]4F)n3c2)ccc(F)c1F [Example 31] | 101 to 500 nM |  |
| Cc1c(F)c(N(C)C)c2[nH]ncc2c1-c1ccc2nc(N)c(C(=O)[C@@H]3C[C@@H]3F)n2c1 [Example 61] | 101 to 500 nM |  |
| Nc1nc2c(F)cc(-c3ccc4[nH]ccc4c3)cn2c1C(=O)[C@@H]1C[C@@H]1F [Example 92] | 101 to 500 nM |  |
| Nc1nc2ccc(-c3ccccc3CCF)cn2c1C(=O)[C@@H]1C[C@H]1F [Example 139] | > 1000 nM |  |
| Cc1ccccc1-c1ccc2nc(N)c(C(=O)[C@@H]3C[C@@H]3F)n2c1 [Example 118] | 1 to 100 nM |  |
| Cc1ccncc1-c1ccc2nc(N)c(C(=O)C3CC3)n2c1 [Example 2] | 101 to 500 nM |  |
| Nc1nc2ccc(Br)cn2c1C(=O)C1CC1 [Example 1, (2-amino-6-bromoimidazo[1,2-a]pyridin-3-yl)(cyclopropyl)methanone] | > 1000 nM |  |
| Cc1cc(-c2ccc3nc(N)c(C(=O)[C@@H]4C[C@@H]4F)n3c2)sn1 [Example 72] | 101 to 500 nM |  |
| CC(C)(C)OC(=O)n1ccc(-c2ccc3nc(N)c(C(=O)[C@@H]4C[C@@H]4F)n3c2)c1 [Example 122] | > 1000 nM |  |
| Nc1nc2ccc(-c3ccc4[nH]ccc4c3)cn2c1C(=O)[C@H]1C[C@@H]1F [Example 157] | 1 to 100 nM |  |
| Cc1ccc(C)c(-c2ccc3nc(N)c(C(=O)[C@@H]4C[C@@H]4F)n3c2)c1 [Example 16] | 101 to 500 nM |  |
| Nc1nc2ccc(-c3ccc4[nH]ncc4c3)cn2c1C(=O)[C@@H]1C[C@@H]1F [Example 80] | 1 to 100 nM |  |
| Cc1cccc(N)c1-c1ccc2nc(N)c(C(=O)[C@@H]3C[C@@H]3F)n2c1 [Example 143] | > 1000 nM |  |
| NCc1ccccc1-c1ccc2nc(N)c(C(=O)[C@@H]3C[C@@H]3F)n2c1 [Example 138] | > 1000 nM |  |
| Cc1c(F)cccc1-c1ccc2nc(N(C)C)c(C(=O)[C@H]3C[C@@H]3F)n2c1 [Example 55, (2-(dimethylamino)-6-(3-fluoro-2-methylphenyl)imidazo[1,2-a]pyridin-3-yl)((1R,2S)-2-fluorocyclopropyl)methanone] | > 1000 nM |  |
| Nc1nc2ccc(-c3c[nH]c4ccc(Cl)cc34)cn2c1C(=O)[C@@H]1C[C@@H]1F [Example 111] | 101 to 500 nM |  |
| Nc1nc2ccc(-c3cccs3)cn2c1C(=O)[C@@H]1C[C@@H]1F [Example 8] | 101 to 500 nM |  |
| Nc1nc2ccc(-c3ccc[nH]3)cn2c1C(=O)[C@@H]1C[C@@H]1F [Example 124] | > 1000 nM |  |
| Nc1nc2ccc(-c3cncc4ccccc34)cn2c1C(=O)[C@@H]1C[C@@H]1F [Example 117] | 1 to 100 nM |  |
| Cc1c(F)cccc1-c1ccc2nc(N)c(C(=O)c3ccccn3)n2c1 [Example 12] | 1 to 100 nM |  |
| CNc1cc(F)cc(-c2ccc3nc(N)c(C(=O)[C@@H]4C[C@@H]4F)n3c2)c1C [Example 146] | 101 to 500 nM |  |
| Cc1c(F)cccc1-c1ccc2nc(N)c(C(=O)C3CC3)n2c1 [Example 14] | 1 to 100 nM |  |
